Measured values from patent publication US20240238294A1, “ANTICANCER THERAPY” (Boehringer Ingelheim International GmbH, priority 2021, published 2024).
Like-named read-outs stand apart in the source and are kept apart here.

How the values were obtained:
[1] = tested on: H358 cells with KRAS G12C + Y96D; conditions: 2D, monotherapy
Excerpt: (§1) Briefly, each KRAS mutation was introduced using a Prime STAR Mutagenesis Basal Kit (Takara) with designed primers into the pBABE-puro-KRas construct (Addgene, Cambridge, MA, USA). Retroviral particles were generated by co-transfection of each pBABE-puro-KRAS construct and pVSV-G vector (Clontech, Fremont, CA, USA) into gp-IRES 293 cells with FuGENE6 transfection reagent (Roche Diagnostics, Basel, Switzerland). Viral particles were concentrated using a retrovirus concentration kit (Clontech). […] The transfected Ba/F3 cells or H358 cells were selected with 0.8-1.0 μg/mL or 2.0 μg/mL of puromycin, respectively. […]
(§2) In the two-dimensional (2D) growth inhibition assay, 5x10^3 cells were cultured in 96-well plates for 24 hours and treated with reagents at ten different concentrations for 72 hr. […] The amount of formazan dye, which reflects cell viability, was measured by reading the absorbance at 450 nm using a multiplate reader (Tecan, Mannedorf, Switzerland). […] IC50 values were determined by a nonlinear regression curve fit utilizing a variable slope model with normalized the response in GraphPad prism version 8 (GraphPad Software, San Diego, CA). […]

[2] = tested on: H358 cells with KRAS G12C + Y96S; conditions: 2D, monotherapy
Excerpt: as §1, §2

[3] = tested on: H358 cells with KRAS G12C + Y96D; conditions: 3D, monotherapy
Excerpt: (§3) Briefly, each KRAS mutation was introduced using a Prime STAR Mutagenesis Basal Kit (Takara) with designed primers into the pBABE-puro-KRas construct (Addgene, Cambridge, MA, USA). Retroviral particles were generated by co-transfection of each pBABE-puro-KRAS construct and pVSV-G vector (Clontech, Fremont, CA, USA) into gp-IRES 293 cells with FuGENE6 transfection reagent (Roche Diagnostics, Basel, Switzerland). Viral particles were concentrated using a retrovirus concentration kit (Clontech). Ba/F3 cells (3×103) or H358 cells (1×104) were transfected with each retrovirus and cultured at 37° C. for a few days. The transfected Ba/F3 cells or H358 cells were selected with 0.8-1.0 μg/mL or 2.0 μg/mL of puromycin, respectively. […]
as §2

[4] = tested on: H358 cells with KRAS G12C + Y96S; conditions: 3D, monotherapy
Excerpt: as §3, §2

[5] = tested on: H358 cells harboring G12C plus Y96S; conditions: 72 hours, FIG. 4
Excerpt: as §3, §2

[6] = tested on: H358 cells harboring G12C plus Y96D; conditions: 72 hours, FIG. 4
Excerpt: as §3, §2

[7] = tested on: Ba/F3 cells harboring KRAS G12C; test: growth inhibition assay, Ba/F3 cells with KRAS G12C; assay type: cell-based, murine; conditions: Mus musculus, BaF3; Table 3, Ba/F3 G12C, 72 hours
Excerpt: as §3, §2

[8] = tested on: Ba/F3 cells harboring KRAS G12C + Y96D (introduced); test: growth inhibition assay, Ba/F3 cells with introduced KRAS G12C plus secondary mutation; assay type: cell-based, murine; conditions: Table 3, Ba/F3 G12C + Y96D
Excerpt: (§4) Briefly, each KRAS mutation was introduced using a Prime STAR Mutagenesis Basal Kit (Takara) with designed primers into the pBABE-puro-KRas construct (Addgene, Cambridge, MA, USA). Retroviral particles were generated by co-transfection of each pBABE-puro-KRAS construct and pVSV-G vector (Clontech, Fremont, CA, USA) into gp-IRES 293 cells with FuGENE6 transfection reagent (Roche Diagnostics, Basel, Switzerland). Viral particles were concentrated using a retrovirus concentration kit (Clontech). Ba/F3 cells (3×103) or H358 cells (1×104) were transfected with each retrovirus and cultured at 37° C. for a few days. The transfected Ba/F3 cells or H358 cells were selected with 0.8-1.0 μg/mL or 2.0 μg/mL of puromycin, respectively. After puromycin selection, presence of each KRAS mutation was confirmed as follows; total RNA was extracted from cells using a mirVana miRNA Isolation Kit (Qiagen, Hilden, Germany), and cDNA was generated by reverse transcription using ReverTra Ace (TOYOBO, Osaka, Japan). The KRAS coding sequence was amplified by PCR. The KRAS nucleotide sequence was checked by Sanger sequencing using the 3130 or 3500XL Genetic Analyzer (Applied Biosystems, Waltham, MA).
(§5) In the two-dimensional (2D) growth inhibition assay, 5x10^3 cells were cultured in 96-well plates for 24 hours and treated with reagents at ten different concentrations for 72 hr. Cell viability assays were performed using Cell Counting Kit-8 (Dojindo Laboratories, Kumamoto, Japan). The amount of formazan dye, which reflects cell viability, was measured by reading the absorbance at 450 nm using a multiplate reader (Tecan, Mannedorf, Switzerland). In the 3D growth inhibition assay, 5×10^3 cells were embedded in growth factor-reduced Matrigel (Corning, New York, USA) and cultured in RPMI 1640 medium (Wako) with 10% FBS (Sigma-Aldrich) and P/S (Wako) in 96-well plates. After 72 hours of incubation, cells were treated with the indicated concentrations for 72 hours, and a cell viability assay was performed as described above. IC50 values were determined by a nonlinear regression curve fit utilizing a variable slope model with normalized the response in GraphPad prism version 8 (GraphPad Software, San Diego, CA).
(§6) The RI value was calculated with the following formula: IC50 of each reconstructed Ba/F3 cell/IC50 of parental Ba/F3 cells with KRAS G12C.
(§7) The results are shown as the mean values of three individual experiments. Error bars indicate the standard deviation (SD).

[9] = tested on: Ba/F3 cells harboring KRAS G12C + A59S (introduced); test: as above; assay type: cell-based, murine; conditions: Mus musculus, BaF3; Table 3, Ba/F3 G12C + A59S, 72 hours
Excerpt: as §4, §5, §6, §7

[10] = tested on: Ba/F3 cells harboring KRAS G12C + Y96S (introduced); test: as above; assay type: cell-based, murine; conditions: Table 3, Ba/F3 G12C + Y96S
Excerpt: as §4, §5, §6, §7

COc1cc2nc(C)nc(N[C@H](C)c3cc(N)cc(C(F)(F)F)c3)c2cc1O[C@H]1CCOC1 [BI-3406]
growth inhibition [1]: modestly inhibited growth
growth inhibition [2]: modestly inhibited growth
growth inhibition [3]: modestly inhibited growth
growth inhibition [4]: modestly inhibited growth

C=CC(=O)N1CCN(c2nc(=O)n(-c3c(C)ccnc3C(C)C)c3nc(-c4c(O)cccc4F)c(F)cc23)[C@@H](C)C1 [sotorasib]
IC50 compared to parental H358 cells [5]: approximately 30 times
IC50 compared to parental H358 cells [6]: approximately 30 times

C[C@@H]1OCC2(CCN(c3cnc(Sc4ccnc(N)c4Cl)c(N)n3)CC2)[C@@H]1N [TNO 155]
IC50 [7]: 0.455 µM
IC50 ([8]; Mus musculus, BaF3, 72 h): > 1 µM
IC50 ([8]; 72 hours): 1.09 µM
IC50 [9]: 3.05 µM
IC50 ([10]; Mus musculus, BaF3, 72 h): > 1 µM
IC50 ([10]; 72 hours): 1.15 µM
